Data taken from patent US20040033899A1, “5[(pyrazol-4-yl)carbonyl]benzazolone as herbicide” (priority 2000, published 2004).
Values belong to the compound of their own block, whether it stands above or below them.

Legend:
[1] = system: BRAPL; assay: greenhouse post-emergence herbicidal test; format: in vivo, marmelade grass
Excerpt: (§1) The seeds of the test plants were sown separately for each species. For the post-emergence treatment, the test plants were first grown to a plant height of from 3 to 15 cm, depending on the plant habit, and only then treated with the active compounds which had been suspended or emulsified in water. To this end, the test plants were either sown directly and grown in the same containers, or they were first grown separately as seedlings and transplanted into the test containers a few days prior to treatment. The rate of application for the post-emergence treatment was 31.3, 62.5, 125 and/or 250 g of a.s. (active substance) /ha. Depending on the species, the plants were kept at from 10 to 25° C., or 20-35° C., respectively. The test period extended over 2 to 4 weeks. During this time, the plants were tended, and their response to the individual treatments was evaluated. Evaluation was carried out using a scale of from 0 to 100. 100 means no emergence of the plants, or complete destruction of at least the aerial parts, and 0 means no damage, or normal course of growth. A damage of at least 95% corresponds to very good herbicidal action. The plants used in the greenhouse experiments were of the following species: [table]

[2] = system: AMARE; assay: greenhouse post-emergence herbicidal test; format: in vivo, redroot pigweed
Excerpt: as §1

[3] = system: BIDPI; assay: greenhouse post-emergence herbicidal test; format: in vivo, hairy beggarticks; conditions: 125 or 250 g/ha (a.s.)
Excerpt: as §1

[4] = system: POLPE; assay: greenhouse post-emergence herbicidal test; format: in vivo, ladysthumb
Excerpt: as §1

[5] = system: THLAR; assay: greenhouse post-emergence herbicidal test; format: in vivo, pennycress; conditions: 31.3 or 62.5 g/ha (a.s.)
Excerpt: as §1

[6] = system: STEME; assay: greenhouse post-emergence herbicidal test; format: in vivo, chickweed; conditions: 31.3 or 62.5 g/ha (a.s.)
Excerpt: as §1

[7] = system: PAPRH; assay: greenhouse post-emergence herbicidal test; format: in vivo, cornpoppy; conditions: 31.3 or 62.5 g/ha (a.s.)
Excerpt: as §1

[8] = system: SETFA; assay: greenhouse post-emergence herbicidal test; format: in vivo, giant foxtail; conditions: 125 or 250 g/ha (a.s.)
Excerpt: as §1

[9] = system: ECHCG; assay: greenhouse post-emergence herbicidal test; format: in vivo, barnyardgrass; conditions: 125 or 250 g/ha (a.s.)
Excerpt: as §1

[10] = system: CHEAL; assay: greenhouse post-emergence herbicidal test; format: in vivo, lambsquarters (goosefoot); conditions: 125 or 250 g/ha (a.s.)
Excerpt: as §1

[11] = system: PHBPU; assay: greenhouse post-emergence herbicidal test; format: in vivo, morningglory, common; conditions: 125 or 250 g/ha (a.s.)
Excerpt: as §1

melting point: 155 to 158 °C
SMILES: C=CCn1c(=O)sc2ccc(C(=O)c3cnn(C)c3O)c(C)c21 [Example 4]

melting point: 200 to 203 °C
SMILES: Cc1c(C(=O)c2cnn(C)c2O)ccc2oc(=O)n(C)c12 [Example 6]

melting point: 127 to 129 °C
SMILES: C=CCn1c(=O)oc2ccc(C(=O)c3cnn(C)c3O)c(C)c21 [Example 7]

melting point: 156 to 157 °C
SMILES: CCn1c(=O)oc2ccc(C(=O)c3cnn(C)c3O)c(C)c21 [Example 8]

melting point: 135 to 137 °C
SMILES: CCCn1c(=O)sc2ccc(C(=O)c3cnn(C)c3O)c(C)c21 [Example 15]

melting point: 65 to 71 °C
SMILES: Cc1c(C(=O)c2cnn(C)c2O)ccc2sc(=O)n(Cc3ccccc3)c12 [Example 16]

melting point: 142 to 144 °C
SMILES: Cc1c(C(=O)c2cnn(C(C)C)c2O)ccc2sc(=O)n(Cc3ccccc3)c12 [Example 17]

melting point: 153 to 156 °C
SMILES: Cc1nn(C)c(O)c1C(=O)c1ccc2sc(=O)n(Cc3ccccc3)c2c1C [Example 18]

melting point: 140 to 147 °C
SMILES: CC#CCn1c(=O)sc2ccc(C(=O)c3cnn(C)c3O)c(C)c21 [Example 20]

melting point: 54 to 60 °C
SMILES: CC#CCn1c(=O)sc2ccc(C(=O)c3cnn(C(C)C)c3O)c(C)c21 [Example 21]

melting point: 54 to 58 °C
SMILES: Cc1c(C(=O)c2cnn(C(C)C)c2O)ccc2sc(=O)n(CC3OCCO3)c12 [Example 23]

melting point: 150 to 151 °C
SMILES: Cc1c(C(=O)c2cnn(C)c2O)ccc2oc(=O)n(CC(C)C)c12 [Example 26]

melting point: 104 to 105 °C
SMILES: CCCn1c(=O)oc2ccc(C(=O)c3cnn(C(C)C)c3O)c(C)c21 [Example 27]

melting point: 56 to 61 °C
SMILES: CCCn1c(=O)sc2ccc(C(=O)c3c(C)nn(C)c3O)c(C)c21 [Example 28]

melting point: 150 to 151 °C
SMILES: Cc1c(C(=O)c2cnn(C)c2OCc2ccccc2)ccc2sc(=O)n(Cc3ccccc3)c12 [Example 35]

melting point: 105 to 107 °C
SMILES: CCCCCn1c(=O)sc2ccc(C(=O)c3cnn(C(C)C)c3O)c(C)c21 [Example 39]

melting point: 71 to 74 °C
SMILES: COc1cccc(Cn2c(=O)sc3ccc(C(=O)c4cnn(C(C)C)c4O)c(C)c32)c1 [Example 44]

melting point: 79 to 89 °C
SMILES: COc1cccc(Cn2c(=O)sc3ccc(C(=O)c4cnn(C)c4O)c(C)c32)c1 [Example 45]

Continued, compound first:

SMILES: Cc1c(C(=O)c2cnn(C(C)C)c2OCc2ccccc2)ccc2sc(=O)n(CC3OCCO3)c12 [Example 24]
melting point: 133 to 134 °C

SMILES: CCCn1c(=O)oc2ccc(C(=O)c3cnn(C)c3O)c(C)c21 [Example I-1a.4]
herbicidal action against BRAPL ([1]; 125 or 62.5 g/ha (a.s.)): very good herbicidal action (A damage of at least 95% corresponds to very good herbicidal action)
herbicidal action against AMARE ([2]; 125 or 62.5 g/ha (a.s.)): very good herbicidal action (A damage of at least 95% corresponds to very good herbicidal action)

SMILES: CCCCn1c(=O)oc2ccc(C(=O)c3cnn(C)c3O)c(C)c21 [Example I-1a.6]
herbicidal action against BIDPI [3]: very good herbicidal action (A damage of at least 95% corresponds to very good herbicidal action)
herbicidal action against POLPE ([4]; 125 or 250 g/ha (a.s.)): very good herbicidal action (A damage of at least 95% corresponds to very good herbicidal action)

SMILES: Cc1c(C(=O)c2cnn(C)c2O)ccc2sc(=O)n(C)c12 [Example I-1a.1129, 3,4-dimethyl-5-(5′-hydroxy-1′-methyl-pyrazol-4-yl)carbonyl benzothiazol-2-one]
herbicidal action against THLAR [5]: very good herbicidal action (A damage of at least 95% corresponds to very good herbicidal action)
herbicidal action against STEME [6]: very good herbicidal action (A damage of at least 95% corresponds to very good herbicidal action)

SMILES: CCn1c(=O)sc2ccc(C(=O)c3cnn(C)c3O)c(C)c21 [Example I-1a.1131]
herbicidal action against BRAPL ([1]; 125 or 250 g/ha (a.s.)): very good herbicidal action (A damage of at least 95% corresponds to very good herbicidal action)
herbicidal action against AMARE ([2]; 125 or 250 g/ha (a.s.)): very good herbicidal action (A damage of at least 95% corresponds to very good herbicidal action)

SMILES: CCn1ncc(C(=O)c2ccc3sc(=O)n(C)c3c2C)c1O [Example I-1b.1129, 3,4-dimethyl-5-(5′-hydroxy-1′-ethylpyrazol-4-yl)carbonylbenzothiazol-2-one]
herbicidal action against PARPH [7]: very good herbicidal action (A damage of at least 95% corresponds to very good herbicidal action)
herbicidal action against THLAR [5]: very good herbicidal action (A damage of at least 95% corresponds to very good herbicidal action)
herbicidal action against STEME [6]: very good herbicidal action (A damage of at least 95% corresponds to very good herbicidal action)

SMILES: CCn1ncc(C(=O)c2ccc3sc(=O)n(CC)c3c2C)c1O [Example I-1b.1131]
herbicidal action against BRAPL ([1]; 125 or 250 g/ha (a.s.)): very good herbicidal action (A damage of at least 95% corresponds to very good herbicidal action)
herbicidal action against AMARE ([2]; 125 or 250 g/ha (a.s.)): very good herbicidal action (A damage of at least 95% corresponds to very good herbicidal action)

SMILES: Cc1c(C(=O)c2cnn(C(C)C)c2O)ccc2sc(=O)n(C)c12 [Example I-1c.1129, 3,4-dimethyl-5-(5′-hydroxy-1′-isopropylpyrazol-4-yl)carbonylbenzothiazol-2-one]
herbicidal action against POLPE ([4]; 31.3 or 62.5 g/ha (a.s.)): very good herbicidal action (A damage of at least 95% corresponds to very good herbicidal action)
herbicidal action against AMARE ([2]; 31.3 or 62.5 g/ha (a.s.)): very good herbicidal action (A damage of at least 95% corresponds to very good herbicidal action)

SMILES: CCn1c(=O)sc2ccc(C(=O)c3cnn(C(C)C)c3O)c(C)c21 [Example I-1c.1131]
herbicidal action against BRAPL ([1]; 125 or 250 g/ha (a.s.)): very good herbicidal action (A damage of at least 95% corresponds to very good herbicidal action)
herbicidal action against AMARE ([2]; 125 or 250 g/ha (a.s.)): very good herbicidal action (A damage of at least 95% corresponds to very good herbicidal action)

SMILES: CCn1c(=O)sc2ccc(C(=O)c3cnn(C(C)(C)C)c3O)c(C)c21 [Example I-1d.1131]
herbicidal action against BRAPL ([1]; 125 or 250 g/ha (a.s.)): very good herbicidal action (A damage of at least 95% corresponds to very good herbicidal action)
herbicidal action against AMARE ([2]; 125 or 250 g/ha (a.s.)): very good herbicidal action (A damage of at least 95% corresponds to very good herbicidal action)

SMILES: CCn1c(=O)sc2ccc(C(=O)c3cnn(C)c3OCc3ccccc3)c(C)c21 [Example I-1g.1131]
herbicidal action against SETFA [8]: very good-herbicidal action
herbicidal action against BRAPL ([1]; 125 or 250 g/ha (a.s.)): very good-herbicidal action
herbicidal action against AMARE ([2]; 125 or 250 g/ha (a.s.)): very good-herbicidal action
herbicidal action against ECHCG [9]: very good-herbicidal action
herbicidal action against CHEAL [10]: very good-herbicidal action

SMILES: CCn1ncc(C(=O)c2ccc3sc(=O)n(CC)c3c2C)c1OCc1ccccc1 [Example I-1h.1131]
herbicidal action against BRAPL ([1]; 125 or 250 g/ha (a.s.)): very good herbicidal action (A damage of at least 95% corresponds to very good herbicidal action)
herbicidal action against AMARE ([2]; 125 or 250 g/ha (a.s.)): very good herbicidal action (A damage of at least 95% corresponds to very good herbicidal action)

SMILES: CCn1c(=O)sc2ccc(C(=O)c3cnn(C(C)(C)C)c3OCc3ccccc3)c(C)c21 [Example I-1y.1131]
herbicidal action against BRAPL ([1]; 125 or 250 g/ha (a.s.)): very good herbicidal action (A damage of at least 95% corresponds to very good herbicidal action)
herbicidal action against PHBPU [11]: very good herbicidal action (A damage of at least 95% corresponds to very good herbicidal action)
